Values of other authors as cited in patent publication US20250339514A1, “SINGLE-AND MULTI-EPITOPE PEPTIDE AND MRNA VACCINES TO GENERATE TOLEROGENIC EFFECTS FOR ALLERGIC AND AUTOIMMUNE DISEASE BY TARGETING LIVER SINUSOIDAL ENDOTHELIAL CELLS” (The Regents of the University of California, priority 2022, published 2025).

Key:
human T-cell lines = details: T-cell lines isolated from 10 different donors; cited from earlier work
C57BL/6J mice = details: inhalation of low peptide concentrations, naïve C57BL/6J mice; cited from earlier work
lupus-prone mice = details: subcutaneous every 2 weeks; cited from earlier work
lupus patients = details: Phase 1 and Phase 2 clinical trials; cited from earlier work
MRL/lpr mice = details: repeated administration; cited from earlier work

## AH91-110: adalimumab HCDR3 peptide
Human T-cell lines
  recognition by T-cell lines: recognized by the majority of T-cell lines

## AH96-110: adalimumab HCDR3 peptide (CAKVSYLSTASSLDY; listed as Homo sapiens)
Human T-cell lines
  recognition by T-cell lines: recognized by the majority of T-cell lines

## Der p1 T-cell epitope (residues 111-139): major Der p1 T-cell epitope peptide (Hoyne et al.) (FGISNYCQIYPPNVNKIREALAQTHSAIA; UniProt P08176 209-237, looked up, fragment)
C57BL/6J mice
  tolerance induction: capable of inducing tolerance

## H4 aa 71-94: nucleosomal histone H4 peptide autoepitope
lupus-prone mice
  efficacy of autoepitope: most effective autoepitope

## RIHMVYSKRpSGKPRGYAFIEY [P140]
Lupus patients
  clinical efficacy: effective in treating lupus patients
MRL/lpr mice
  T-cell epitope spreading to other U1-70K regions: transiently abolishing T-cell epitope spreading
